Data as given in US5958935A, “Substituted 2-anilinopyrimidines useful as protein kinase inhibitors” (Celltech Therapeutics Limited, priority 1995, dated 1999).

How the values were obtained:
Format in all cases: biochemical
[1] = biological target: T1, ZAP-70 (Homo sapiens, UniProt P43403); experiment: ZAP-70 kinase assay; conditions: polyGlu-Tyr 17 μg/ml
T1 sequence (P43403 1-619): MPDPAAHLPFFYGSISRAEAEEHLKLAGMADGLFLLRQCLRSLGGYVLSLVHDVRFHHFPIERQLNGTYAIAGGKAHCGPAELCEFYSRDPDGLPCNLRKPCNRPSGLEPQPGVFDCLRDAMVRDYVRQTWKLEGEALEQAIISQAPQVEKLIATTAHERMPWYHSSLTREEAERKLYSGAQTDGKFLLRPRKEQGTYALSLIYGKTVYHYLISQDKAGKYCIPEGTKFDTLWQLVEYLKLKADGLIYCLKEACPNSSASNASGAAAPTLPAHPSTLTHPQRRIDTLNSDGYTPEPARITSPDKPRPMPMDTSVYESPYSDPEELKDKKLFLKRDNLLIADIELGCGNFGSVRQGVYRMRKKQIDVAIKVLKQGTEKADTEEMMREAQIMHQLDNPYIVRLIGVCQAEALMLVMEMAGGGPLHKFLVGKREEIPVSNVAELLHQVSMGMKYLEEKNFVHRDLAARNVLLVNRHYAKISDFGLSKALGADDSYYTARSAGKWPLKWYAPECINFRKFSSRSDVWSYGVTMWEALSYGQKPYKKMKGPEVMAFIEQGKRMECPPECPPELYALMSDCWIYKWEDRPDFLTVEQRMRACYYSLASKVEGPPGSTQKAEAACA
Description: (§1) The tyrosine kinase activity of ZAP-70 was determined using a capture assay based on that employed above for p56^lck. The RR-src peptide was replaced with polyGlu-Tyr (Sigma; Poole, UK) at a final concentration of 17 μg/ml. After addition of the stopped reaction to the filtermat, trichloroacetic acid 10% (w/v) was employed as the wash reagent instead of acetic acid and a final wash in absolute ethanol was also performed before scintillation counting. IC50 values for each test inhibitor were determined as described above in the p56^lck assay.

[2] = system: protein kinase C (PKC); experiment: Protein kinase C assay; conditions: for activity in the protein kinase C assay: in words
Description: (§2) Inhibitor activity against protein kinase C (PKC) was determined using PKC obtained from Sigma Chemical Company (Poole, UK) and a commercially available assay system (Amersham International plc, Little Chalfont, UK). Briefly, PKC catalyses the transfer of the γ-phosphate (^32 p) of ATP to the threonine group on a peptide specific for PKC. Phosphorylated peptide is bound to phosphocellulose paper, subsequently quantified by scintillation counting and IC50 values determined as before.

[3] = system: remaining kinases; experiment: Selectivity over the remaining kinases described (p56^lck, p59^fyn, EGFr, ZAP-70, Csk, protein kinase C assays)
Description: (§3) All assays were performed in 20 mM HEPES pH 7.5 containing 10 mM MgCl2, 10 mM MnCl2, 0.05% Brij, 1 μM ATP (0.5 μCi[γ-^33 P]ATP) and 0.8 mg/ml RR-src. […] After incubation at 30° C. for 15 min, the reaction was terminated by the addition of one-third volume of stop reagent (0.25 mM EDTA and 33 mM ATP in dH2 O). A 15 μl aliquot was removed, spotted onto a P-30 filtermat (Wallac, Milton Keynes, UK), and washed sequentially with 1% acetic acid and dH2 O to remove ATP. The bound ^33 P-RR-src was quantitated by scintillation counting of the filtermat in a Betaplate scintillation counter (Wallac, Milton Keynes, UK) after addition of Meltilex scintillant (Wallac, Milton Keynes, UK). The dpm obtained, being directly proportional to the amount of ^33 P-RR-src produced by p56^lck, were used to determine the IC50 for each compound.
IC50 values for each test inhibitor were determined as described previously in the p56^lck assay.
as §1
as §2, with “PKC.” for “PKC. Phosphorylated peptide is bound to phosphocellulose paper, subsequently quantified by scintillation counting and IC50 values determined as before.”
Phosphorylated peptide is bound to phosphocellulose paper, subsequently quantified by scintillation counting and IC50 values determined as before.

[4] = biological target: human p56^lck (Homo sapiens, UniProt P06239); experiment: p56^lck kinase assay; conditions: 1 μM ATP, RR-src, pH 7.5, 30° C., 15 min
Description: The tyrosine kinase activity of p56^lck was determined using a RR-src peptide (RRLIEDNEYTARG) and [γ-^33 P]ATP as substrates. Quantitation of the ^33 P-phosphorylated peptide formed by the action of p56^lck was achieved using an adaption of the method of Geissler et al (J. Biol. Chem. (1990) 265, 22255-22261).
as §3

[5] = system: human p59^fyn; experiment: p59^fyn kinase assay; conditions: in words
Description: Compounds of the invention were assayed for p59^fyn inhibitory activity in a similar manner to the p56^lck assay, using human p59^fyn.

[6] = relative to ZAP-70, remaining = other than ZAP-70 and protein kinase C
[7] = relative to p56^lck, remaining = other than p56^lck and p59^fyn
[8] = relative to protein kinase C, remaining = other than protein kinase C

Chain of human p56^lck (P06239 whole entry): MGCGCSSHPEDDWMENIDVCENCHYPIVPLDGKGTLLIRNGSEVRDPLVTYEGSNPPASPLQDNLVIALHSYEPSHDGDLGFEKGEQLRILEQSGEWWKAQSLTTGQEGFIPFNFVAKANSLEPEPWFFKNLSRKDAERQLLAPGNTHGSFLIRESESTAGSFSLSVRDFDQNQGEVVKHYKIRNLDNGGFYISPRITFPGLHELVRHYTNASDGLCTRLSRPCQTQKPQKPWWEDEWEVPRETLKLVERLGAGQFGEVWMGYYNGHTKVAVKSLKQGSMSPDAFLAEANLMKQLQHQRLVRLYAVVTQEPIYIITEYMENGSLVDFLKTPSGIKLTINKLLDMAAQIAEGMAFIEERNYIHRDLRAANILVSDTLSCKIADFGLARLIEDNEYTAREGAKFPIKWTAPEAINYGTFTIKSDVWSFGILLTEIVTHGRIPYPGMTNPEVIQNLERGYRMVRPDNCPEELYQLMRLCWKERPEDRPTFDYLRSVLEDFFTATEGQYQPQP

Row | SMILES | IC50 [1] | activity in the protein kinase C assay [2] | IC50 values at least 10× greater against the remaining kinases [3, 6] | IC50 [4] | activity against p59^fyn [5] | IC50 values at least 10× greater against the remaining kinases [3, 7] | IC50 [2] | IC50 values at least 10× greater against the remaining kinases [3, 8]
1 | COc1cc(Nc2nccc(-c3ccc(NCCCN)nc3)n2)cc(OC)c1OC [Example 66, 4-(2-(3-Aminopropylamino)pyridin-5-yl)-N-(3,4,5-trimethoxyphenyl)-2-pyrimidineamine] | 68 nM | active | at least 10 × |  |  |  |  | 
2 | COc1ccc(Nc2ccnc(Nc3cc(OC)c(OC)c(OC)c3)n2)cc1OC [Example 96, N4-(3,4-Dimethoxyphenyl)-N2-(3,4,5-trimethoxyphenyl)-2,4-pyrimidinediamine] |  |  |  | 215 nM | active | at least 10 × |  | 
3 | CCOC(=O)Cc1ccc(Nc2ccnc(Nc3cc(OC)c(OC)c(OC)c3)n2)cc1 [Example 103, N4-(4-(Ethoxycarbonylmethyl)phenyl)-N2-(3,4,5-trimethoxyphenyl)-2,4-pyrimidinediamine] |  |  |  | 40 nM | active | at least 10 × |  | 
4 | COc1cc(Nc2nccc(-c3ccc(NCCN)nc3)n2)cc(OC)c1OC [Example 64, 4-(2-(2-Aminoethylamino)pyridin-5-yl)-N-(3,4,5-trimethoxyphenyl)-2-pyrimidineamine] | 124 nM | active | at least 10 × |  |  |  |  | 
5 | COc1cc(Nc2nccc(-c3ccc(NCCC4CCCN4C)nc3)n2)cc(OC)c1OC (stereo not shown) [Example 81, 4-(2-(2-(1-Methylpyrrolidin-2-yl)ethylamino)pyridin-5-yl)-N-(3,4,5-trimethoxyphenyl)-2-pyrimidineamine] |  |  |  |  |  |  | 92 nM | at least 10 ×
6 | COc1cc(Nc2nccc(-c3cccc(OCCCN)c3)n2)cc(OC)c1OC.Cl.Cl [Example 48, 4-(3-(3-Aminopropoxy)phenyl)-N-(3,4,5-trimethoxyphenyl)-2-pyrimidineamine dihydrochloride] |  |  |  |  |  |  | 22 nM | at least 10 ×
